Calls of active or inactive are those of the source. How the calls were made is not given here.
Test system: CCRIS mutagenicity, Ames/micronucleus/aberration tests
Assay: CCRIS mutagenicity studies
[1] = Test System: AMES SALMONELLA TYPHIMURIUM, Strain/Indicator: TA98, Metabolic Activation: NONE, Method: STANDARD PLATE
[2] = Test System: AMES SALMONELLA TYPHIMURIUM, Strain/Indicator: TA100, Metabolic Activation: NONE, Method: STANDARD PLATE
[3] = Test System: AMES SALMONELLA TYPHIMURIUM, Strain/Indicator: TA1535, Metabolic Activation: NONE, Method: STANDARD PLATE
[4] = Test System: AMES SALMONELLA TYPHIMURIUM, Strain/Indicator: TA1537, Metabolic Activation: NONE, Method: STANDARD PLATE
[5] = Test System: AMES SALMONELLA TYPHIMURIUM, Strain/Indicator: TA1538, Metabolic Activation: NONE, Method: STANDARD PLATE
[6] = Test System: AMES SALMONELLA TYPHIMURIUM, Strain/Indicator: TA98, Metabolic Activation: RAT, LIVER, S-9, PHENOBARBITAL, Method: STANDARD PLATE
[7] = Test System: AMES SALMONELLA TYPHIMURIUM, Strain/Indicator: TA100, Metabolic Activation: RAT, LIVER, S-9, PHENOBARBITAL, Method: STANDARD PLATE

Measured: mutagenic call

CC1CCC(C(C)C)C(OC(=O)c2ccccc2N)C1 (configuration not stated)
inactive: Test System: AMES SALMONELLA TYPHIMURIUM, Strain/Indicator: TA98, Metabolic Activation: HAMSTER, LIVER, S-9, AROCLOR 1254 (10%), Method: STANDARD PLATE inactive; negative | [1] inactive; negative | Test System: AMES SALMONELLA TYPHIMURIUM, Strain/Indicator: TA98, Metabolic Activation: RAT, LIVER, S-9, AROCLOR 1254 (10%), Method: STANDARD PLATE inactive; negative | Test System: AMES SALMONELLA TYPHIMURIUM, Strain/Indicator: TA100, Metabolic Activation: HAMSTER, LIVER, S-9, AROCLOR 1254 (10%), Method: STANDARD PLATE inactive; negative | [2] inactive; negative | Test System: AMES SALMONELLA TYPHIMURIUM, Strain/Indicator: TA100, Metabolic Activation: RAT, LIVER, S-9, AROCLOR 1254 (10%), Method: STANDARD PLATE inactive; negative | Test System: AMES SALMONELLA TYPHIMURIUM, Strain/Indicator: TA1535, Metabolic Activation: HAMSTER, LIVER, S-9, AROCLOR 1254 (10%), Method: STANDARD PLATE inactive; negative | [3] inactive; negative | Test System: AMES SALMONELLA TYPHIMURIUM, Strain/Indicator: TA1535, Metabolic Activation: RAT, LIVER, S-9, AROCLOR 1254 (10%), Method: STANDARD PLATE inactive; negative | Test System: AMES SALMONELLA TYPHIMURIUM, Strain/Indicator: TA1537, Metabolic Activation: HAMSTER, LIVER, S-9, AROCLOR 1254 (10%), Method: STANDARD PLATE inactive; negative | [4] inactive; negative | Test System: AMES SALMONELLA TYPHIMURIUM, Strain/Indicator: TA1537, Metabolic Activation: RAT, LIVER, S-9, AROCLOR 1254 (10%), Method: STANDARD PLATE inactive; negative | Test System: AMES SALMONELLA TYPHIMURIUM, Strain/Indicator: TA1538, Metabolic Activation: HAMSTER, LIVER, S-9, AROCLOR 1254 (10%), Method: STANDARD PLATE inactive; negative | [5] inactive; negative | Test System: AMES SALMONELLA TYPHIMURIUM, Strain/Indicator: TA1538, Metabolic Activation: RAT, LIVER, S-9, AROCLOR 1254 (10%), Method: STANDARD PLATE inactive; negative | Test System: MOUSE LYMPHOMA, Strain/Indicator: L5178Y (TK+/TK-), Metabolic Activation: NONE, Method: SUSPENSION/PLATE inactive; negative. reevaluation of results: negative | Test System: MOUSE LYMPHOMA, Strain/Indicator: L5178Y (TK+/TK-), Metabolic Activation: RAT, LIVER, S-9, AROCLOR 1254, Method: SUSPENSION/PLATE inactive; negative. reevaluation of results: equivocal

Nc1c(N=Nc2ccc([N+](=O)[O-])cc2)c(S(=O)(=O)O)cc2cc(S(=O)(=O)O)c(N=Nc3ccccc3)c(O)c12
inactive: [2] inactive; negative
active: [1] active; positive | [6] active; positive | [7] active; positive

O[C@H]1C=Cc2c(cc3ccc4cccc5ccc2c3c45)[C@@H]1O
active: Test System: AMES SALMONELLA TYPHIMURIUM, Strain/Indicator: TA97, Metabolic Activation: RAT, LIVER, S-9, AROCLOR 1254, Method: STANDARD PLATE active; positive | Test System: AMES SALMONELLA TYPHIMURIUM, Strain/Indicator: TA98, Metabolic Activation: NONE, Method: HOST-MEDIATED active; positive | Test System: AMES SALMONELLA TYPHIMURIUM, Strain/Indicator: TA98, Metabolic Activation: RAT, LIVER, 3-METHYLCHOLANTHRENE, Method: LIQUID SUSPENSION active; positive | Test System: AMES SALMONELLA TYPHIMURIUM, Strain/Indicator: TA98, Metabolic Activation: RAT, LIVER, S-9, AROCLOR 1254, Method: STANDARD PLATE active; positive | Test System: AMES SALMONELLA TYPHIMURIUM, Strain/Indicator: TA98, Metabolic Activation: RAT, LIVER, S-9, Method: STANDARD PLATE active; positive | Test System: AMES SALMONELLA TYPHIMURIUM, Strain/Indicator: TA100, Metabolic Activation: EPITHELIAL CELL-MEDIATED, AROCLOR 1254, Method: PREINCUBATION active; positive | Test System: AMES SALMONELLA TYPHIMURIUM, Strain/Indicator: TA100, Metabolic Activation: EPITHELIAL CELL-MEDIATED, NADPH, Method: PREINCUBATION active; positive | Test System: AMES SALMONELLA TYPHIMURIUM, Strain/Indicator: TA100, Metabolic Activation: EPITHELIAL CELL-MEDIATED, Method: PREINCUBATION active; positive | Test System: AMES SALMONELLA TYPHIMURIUM, Strain/Indicator: TA100, Metabolic Activation: KUPFFER CELL-MEDIATED, AROCLOR 1254, Method: PREINCUBATION active; positive | Test System: AMES SALMONELLA TYPHIMURIUM, Strain/Indicator: TA100, Metabolic Activation: KUPFFER CELL-MEDIATED, NADPH, Method: PREINCUBATION active; positive | Test System: AMES SALMONELLA TYPHIMURIUM, Strain/Indicator: TA100, Metabolic Activation: KUPFFER CELL-MEDIATED, Method: PREINCUBATION active; positive | Test System: AMES SALMONELLA TYPHIMURIUM, Strain/Indicator: TA100, Metabolic Activation: NONE, Method: HOST-MEDIATED active; positive | Test System: AMES SALMONELLA TYPHIMURIUM, Strain/Indicator: TA100, Metabolic Activation: PARENCHYMAL CELL-MEDIATED, AROCLOR 1254, Method: PREINCUBATION active; positive | Test System: AMES SALMONELLA TYPHIMURIUM, Strain/Indicator: TA100, Metabolic Activation: PARENCHYMAL CELL-MEDIATED, NADPH, Method: PREINCUBATION active; positive | Test System: AMES SALMONELLA TYPHIMURIUM, Strain/Indicator: TA100, Metabolic Activation: PARENCHYMAL CELL-MEDIATED, Method: PREINCUBATION active; positive | Test System: AMES SALMONELLA TYPHIMURIUM, Strain/Indicator: TA100, Metabolic Activation: RAT, LIVER, S-9, AROCLOR 1254, Method: STANDARD PLATE active; positive | Test System: AMES SALMONELLA TYPHIMURIUM, Strain/Indicator: TA100, Metabolic Activation: RAT, LIVER, S-9, Method: STANDARD PLATE active; positive | Test System: AMES SALMONELLA TYPHIMURIUM, Strain/Indicator: TA1538, Metabolic Activation: RAT, LIVER, S-9, Method: STANDARD PLATE active; positive | Test System: CHINESE HAMSTER V-79, Strain/Indicator: V-79/6-THIOGUANINE, Metabolic Activation: RAT, LIVER, S-9, AROCLOR 1254 active; positive | Test System: CHINESE HAMSTER V-79, Strain/Indicator: V-79/8-AZAGUANINE, Metabolic Activation: CELL-MEDIATED, Method: STANDARD PLATE active; positive | Test System: CHINESE HAMSTER V-79, Strain/Indicator: V-79/8-AZAGUANINE, Metabolic Activation: NONE, Method: STANDARD PLATE active; positive | Test System: CHINESE HAMSTER V-79, Strain/Indicator: V-79/OUABAIN, Metabolic Activation: CELL-MEDIATED, Method: STANDARD PLATE active; positive | Test System: CHINESE HAMSTER V-79, Strain/Indicator: V-79/OUABAIN, Metabolic Activation: HAMSTER, EMBRYO, CELL-MEDIATED, Method: STANDARD PLATE active; positive
inactive: Test System: AMES SALMONELLA TYPHIMURIUM, Strain/Indicator: TA1537, Metabolic Activation: RAT, LIVER, S-9 AROCLOR 1254, Method: STANDARD PLATE inactive; negative | Test System: AMES SALMONELLA TYPHIMURIUM, Strain/Indicator: TA1538, Metabolic Activation: NONE, Method: HOST-MEDIATED inactive; negative

CC(=O)Nc1ccc2c(c1)[nH]c1ccccc12
active: [1] active; positive | [6] active; positive | [5] active; positive | Test System: AMES SALMONELLA TYPHIMURIUM, Strain/Indicator: TA1538, Metabolic Activation: RAT, LIVER, S-9, PHENOBARBITAL, Method: STANDARD PLATE active; positive
inactive: [2] inactive; negative | [7] inactive; negative | [4] inactive; negative | Test System: AMES SALMONELLA TYPHIMURIUM, Strain/Indicator: TA1977, Metabolic Activation: NONE, Method: STANDARD PLATE inactive; negative | Test System: AMES SALMONELLA TYPHIMURIUM, Strain/Indicator: TA1977, Metabolic Activation: RAT, LIVER, S-9, PHENOBARBITAL, Method: STANDARD PLATE inactive; negative

CC(=O)OCN(CCCCCl)N=O
active: Test System: AMES SALMONELLA TYPHIMURIUM, Strain/Indicator: TA92, Metabolic Activation: NONE, Method: STANDARD PLATE active; positive | [3] active; positive

From PubChem BioAssay AID1259407 (Chemical Carcinogenesis Research Information System (CCRIS), 2018)
